Read-outs that look alike come from different tables or passages of the source.
Legend:
HEMs = assay: Melanin synthesis in L-tyrosine-stimulated HEMs; format: cell-based, human; settings: for effect on melanin synthesis: concentrations of up to 10 μM
Experimental: Human epidermal melanocytes (HEM) derived from neonatal human foreskins were purchased from Cascade Biologics (Portland, Oreg., USA). The HEMs were cultivated in Medium 254 supplemented with human melanocyte growth supplements (Cascade Biologics) and antibiotics.
The extracellular melanin levels were evaluated by measuring the absorbance of the conditioned media at a wavelength of 490 nm, while the intracellular melanin levels were evaluated after extracting melanin from the cells using 0.1 M NaOH at 60° C. for 60 minutes. The values for melanin content were normalized with respect to the protein content in each sample. The protein content was evaluated using the Bio-Rad DC assay (Bio-Rad Laboratories, Inc., Hercules, Calif., USA).

[1] = tested on: cultivated melanocytes and a reconstituted skin tissue model; settings: cited from earlier work
[2] = tested on: Human epidermal melanocytes (HEM); settings: HEMs, 48 hours
[3] = tested on: human epidermal melanocytes; settings: cited from earlier work

**Q.** For O=C(O)CO [GA, glycolic acid], which “effect on melanin synthesis” value (HEMs) is on record?
**A.** no significant effect

**Q.** For CC(=O)Oc1ccc(C=Cc2cc(OC(C)=O)cc(OC(C)=O)c2)cc1 [RTA, resveratryl triacetate], which stability to oxidation ([1]; compared to resveratrol) is on record?
**A.** higher stability

**Q.** And the toxicity ([1]; compared to resveratrol)?
**A.** less toxic

**Q.** And the melanin synthesis ([1]; cultivated melanocytes and reconstituted skin tissue model)?
**A.** effective inhibitor

**Q.** And the cytotoxicity ([2]; concentrations above 30 μM)?
**A.** showed cytotoxicity

**Q.** What about the cytotoxicity ([2]; concentrations below 30 μM) of the same compound?
**A.** barely showed cytotoxicity

**Q.** Which “effect on melanin synthesis” value (HEMs) does the source give for OC[C@H]1O[C@@H](Oc2ccc(O)cc2)[C@H](O)[C@@H](O)[C@@H]1O [arbutin] here?
**A.** no effect

**Q.** And the “effect on melanin synthesis” value (HEMs; listed as Arbutin)?
**A.** no significant effect

**Q.** Which results are given for Oc1ccc(C=Cc2cc(O)cc(O)c2)cc1 [resveratrol]?
**A.** activity of MITF and TYR promoter [3]: suppresses; melanin synthesis [3]: inhibit melanin synthesis

**Q.** For O=C(CO)Oc1ccc(/C=C/c2cc(OC(=O)CO)cc(OC(=O)CO)c2)cc1 [resveratryl triglycolate], which melanin level (HEMs) is on record?
**A.** reduced

Reference: patent US10662140B2, “Method for skin-whitening using composition containing resveratryl triglycolate” (KYUNGPOOK NATIONAL UNIVERSITY INDUSTRY-ACADEMIC COOPERATION …, priority 2016, dated 2020)
